Measured values: patent US20240376099A1, “COMPOUNDS AND COMPOSITIONS AS INHIBITORS OF ENDOSOMAL TOLL-LIKE RECEPTORS” (Novartis AG, priority 2016, published 2024)

What follows are compounds tested against T1, TLR9 (Homo sapiens, UniProt Q9NR96) (assay: huPBMC TLR9 Antagonist IFNα Assay). Settings: human PBMCs stimulated with ODN2216 0.3 μM, 14-16 hrs; IFNα2b AlphaLISA read-out.
T1 construct: Fresh blood was collected from normal human donors; endogenous in cells; host or cells: human PBMCs from fresh donor blood
T1 sequence (Q9NR96 26-1032): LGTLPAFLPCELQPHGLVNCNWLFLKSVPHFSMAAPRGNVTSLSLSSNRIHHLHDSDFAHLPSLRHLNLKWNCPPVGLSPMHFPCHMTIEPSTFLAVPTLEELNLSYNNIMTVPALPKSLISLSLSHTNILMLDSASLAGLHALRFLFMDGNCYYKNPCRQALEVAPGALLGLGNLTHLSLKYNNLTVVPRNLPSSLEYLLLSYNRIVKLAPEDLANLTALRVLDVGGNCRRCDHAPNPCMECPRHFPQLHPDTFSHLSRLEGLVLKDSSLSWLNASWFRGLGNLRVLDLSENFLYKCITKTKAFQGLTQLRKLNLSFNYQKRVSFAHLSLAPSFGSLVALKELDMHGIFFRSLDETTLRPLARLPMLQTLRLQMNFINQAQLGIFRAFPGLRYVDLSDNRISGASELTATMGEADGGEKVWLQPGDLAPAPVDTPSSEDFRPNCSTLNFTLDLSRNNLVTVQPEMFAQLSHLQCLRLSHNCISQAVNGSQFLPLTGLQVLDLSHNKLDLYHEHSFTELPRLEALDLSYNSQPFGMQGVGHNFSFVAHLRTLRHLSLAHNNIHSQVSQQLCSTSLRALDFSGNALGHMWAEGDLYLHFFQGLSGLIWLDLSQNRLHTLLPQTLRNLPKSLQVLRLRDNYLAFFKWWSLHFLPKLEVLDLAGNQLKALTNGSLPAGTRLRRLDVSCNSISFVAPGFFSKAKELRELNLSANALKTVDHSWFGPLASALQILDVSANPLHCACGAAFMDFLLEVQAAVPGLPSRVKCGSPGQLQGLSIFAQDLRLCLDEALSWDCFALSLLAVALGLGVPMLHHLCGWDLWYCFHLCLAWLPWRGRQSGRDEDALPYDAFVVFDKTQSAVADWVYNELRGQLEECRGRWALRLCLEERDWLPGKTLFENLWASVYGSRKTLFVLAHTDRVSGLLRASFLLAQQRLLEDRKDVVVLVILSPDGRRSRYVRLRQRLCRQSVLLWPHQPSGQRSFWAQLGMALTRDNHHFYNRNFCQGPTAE
Type: cell-based
Summary of the method: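 Human PBMCs from fresh donor blood (150,000 cells/well) stimulated 14–16 h at 37 °C with DOTAP-complexed ssRNA40 (final 1 μg/ml for TLR8, 10 μg/mL for TLR7) or ODN2216 (final 0.3 μM, TLR9), 0.25% DMSO, ten-point 1/3 compound dilutions. Supernatant IL-6 read by HTRF (TLR8); IFNα by IFNα2b AlphaLISA (TLR7/TLR9).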
`Cc1cc(N2CCc3c(c(C)nn3CC34CCC(NC(=O)CCN(C)C)(CC3)CC4)C2)c2cnn(C)c2n1` [compound 105, N-(4-((5-(1,6-dimethyl-1H-pyrazolo[3,4-b]pyridin-4-yl)-3-methyl-4,5,6,7-tetrahydro-1H-pyrazolo[4,3-c]pyridin-1-yl)methyl)bicyclo[2.2.2]octan-1-yl)-3-(dimethylamino)propanamide] gave an IC50 of 1630 nM.
`Cc1cc(N2CCc3c(c(C)nn3CC34CCC(NCC(=O)N5CCCC5)(CC3)CC4)C2)c2cnn(C)c2n1` [compound 106, 2-((4-((5-(1,6-dimethyl-1H-pyrazolo[3,4-b]pyridin-4-yl)-3-methyl-4,5,6,7-tetrahydro-1H-pyrazolo[4,3-c]pyridin-1-yl)methyl)bicyclo[2.2.2]octan-1-yl)amino)-1-(pyrrolidin-1-yl)ethanone] was tested, and the IC50 was 2660 nM.
For `Cc1cc(N2CCc3c(c(C)nn3CC34CCC(N5CCO[C@H](C)C5)(CC3)CC4)C2)c2cnn(C)c2n1` [compound 107, (R)-4-(4-((5-(1,6-dimethyl-1H-pyrazolo[3,4-b]pyridin-4-yl)-3-methyl-4,5,6,7-tetrahydro-1H-pyrazolo[4,3-c]pyridin-1-yl)methyl)bicyclo[2.2.2]octan-1-yl)-2-methylmorpholine], the IC50 was 1710 nM.
With `Cc1cc(N2CCc3c(c(C)nn3CC34CCC(N5CCO[C@@H](C)C5)(CC3)CC4)C2)c2cnn(C)c2n1` [compound 109, (S)-4-(4-((5-(1,6-dimethyl-1H-pyrazolo[3,4-b]pyridin-4-yl)-3-methyl-4,5,6,7-tetrahydro-1H-pyrazolo[4,3-c]pyridin-1-yl)methyl)bicyclo[2.2.2]octan-1-yl)-2-methylmorpholine] the IC50 was 515 nM.
`Cc1cc(N2CCc3c(c(C)nn3CC34CCC(N5C[C@@H](C)O[C@@H](C)C5)(CC3)CC4)C2)c2cnn(C)c2n1` [compound 110, (2S,6R)-4-(4-((5-(1,6-dimethyl-1H-pyrazolo[3,4-b]pyridin-4-yl)-3-methyl-4,5,6,7-tetrahydro-1H-pyrazolo[4,3-c]pyridin-1-yl)methyl)bicyclo[2.2.2]octan-1-yl)-2,6-dimethylmorpholine] was tested, and the IC50 was 1900 nM.
`Cc1cc(N2CCc3c(c(C)nn3CC34CCC(N5C[C@H](C)O[C@@H](C)C5)(CC3)CC4)C2)c2cnn(C)c2n1` [compound 111, (2S,6S)-4-(4-((5-(1,6-dimethyl-1H-pyrazolo[3,4-b]pyridin-4-yl)-3-methyl-4,5,6,7-tetrahydro-1H-pyrazolo[4,3-c]pyridin-1-yl)methyl)bicyclo[2.2.2]octan-1-yl)-2,6-dimethylmorpholine] showed an IC50 of 1410 nM.
Compound `Cc1cc(N2CCc3c(c(C)nn3CC34CCC(NCC5CCC5)(CC3)CO4)C2)c2cnn(C)c2n1` [compound 112, N-(cyclobutylmethyl)-1-((5-(1,6-dimethyl-1H-pyrazolo[3,4-b]pyridin-4-yl)-3-methyl-4,5,6,7-tetrahydro-1H-pyrazolo[4,3-c]pyridin-1-yl)methyl)-2-oxabicyclo[2.2.2]octan-4-amine] has an IC50 of 1190 nM.
In the case of `Cc1cc(N2CCc3c(c(C)nn3CC34CCC(N5C[C@@H](C)O[C@H](C)C5)(CC3)CC4)C2)c2cnn(C)c2n1` [compound 113, (2R,6R)-4-(4-((5-(1,6-dimethyl-1H-pyrazolo[3,4-b]pyridin-4-yl)-3-methyl-4,5,6,7-tetrahydro-1H-pyrazolo[4,3-c]pyridin-1-yl)methyl)bicyclo[2.2.2]octan-1-yl)-2,6-dimethylmorpholine], the IC50 is reported as 1410 nM.
`CCNCC(=O)NC12CCC(Cn3nc(C)c4c3CCN(c3cc(C)nc5c3cnn5C)C4)(CC1)CC2` [compound 114, N-(4-((5-(1,6-dimethyl-1H-pyrazolo[3,4-b]pyridin-4-yl)-3-methyl-4,5,6,7-tetrahydro-1H-pyrazolo[4,3-c]pyridin-1-yl)methyl)bicyclo[2.2.2]octan-1-yl)-2-(ethylamino)acetamide] was tested, and the IC50 was 1550 nM.
`Cc1cc(N2CCc3c(c(C)nn3CC34CCC(NC(=O)CCN)(CC3)CC4)C2)c2cnn(C)c2n1` [compound 115, 3-amino-N-(4-((5-(1,6-dimethyl-1H-pyrazolo[3,4-b]pyridin-4-yl)-3-methyl-4,5,6,7-tetrahydro-1H-pyrazolo[4,3-c]pyridin-1-yl)methyl)bicyclo[2.2.2]octan-1-yl)propanamide] gave an IC50 greater than 10000 nM.
`Cc1cc(N2CCc3c(c(C)nn3CC34CCC(N5CC6(COC6)C5)(CC3)CC4)C2)c2cnn(C)c2n1` [compound 116, 6-(4-((5-(1,6-dimethyl-1H-pyrazolo[3,4-b]pyridin-4-yl)-3-methyl-4,5,6,7-tetrahydro-1H-pyrazolo[4,3-c]pyridin-1-yl)methyl)bicyclo[2.2.2]octan-1-yl)-2-oxa-6-azaspiro[3.3]heptane] was tested, and the IC50 was 1570 nM.
`CN[C@H](C)C(=O)NC12CCC(Cn3nc(C)c4c3CCN(c3cc(C)nc5c3cnn5C)C4)(CC1)CC2` [compound 117, (R)-N-(4-((5-(1,6-dimethyl-1H-pyrazolo[3,4-b]pyridin-4-yl)-3-methyl-4,5,6,7-tetrahydro-1H-pyrazolo[4,3-c]pyridin-1-yl)methyl)bicyclo[2.2.2]octan-1-yl)-2-(methylamino)propanamide] was tested, and the IC50 was 954 nM.
With `CN[C@@H](C)C(=O)NC12CCC(Cn3nc(C)c4c3CCN(c3cc(C)nc5c3cnn5C)C4)(CC1)CC2` [compound 118] the IC50 was 775 nM.
Work on `CNCC(=O)NC12CCC(Cn3nc(C)c4c3CCN(c3cc(C)nc5c3cnn5C)C4)(CC1)CC2` [compound 121, N-(4-((5-(1,6-dimethyl-1H-pyrazolo[3,4-b]pyridin-4-yl)-3-methyl-4,5,6,7-tetrahydro-1H-pyrazolo[4,3-c]pyridin-1-yl)methyl)bicyclo[2.2.2]octan-1-yl)-2-(methylamino)acetamide] yielded an IC50 of 1440 nM.
Compound `Cc1cc(N2CCc3c(c(C)nn3CC34CCC(NCC(C)(C)O)(CC3)CC4)C2)c2cnn(C)c2n1` [compound 123, 1-((4-((5-(1,6-dimethyl-1H-pyrazolo[3,4-b]pyridin-4-yl)-3-methyl-4,5,6,7-tetrahydro-1H-pyrazolo[4,3-c]pyridin-1-yl)methyl)bicyclo[2.2.2]octan-1-yl)amino)-2-methylpropan-2-ol] has an IC50 of 2230 nM.
Compound `CCNCC(=O)NC12CCC(Cn3nc(C)c4c3CCN(c3cc(C)nc5cn[nH]c35)C4)(CC1)CC2` [compound 124, 2-(ethylamino)-N-(4-((3-methyl-5-(5-methyl-1H-pyrazolo[4,3-b]pyridin-7-yl)-4,5,6,7-tetrahydro-1H-pyrazolo[4,3-c]pyridin-1-yl)methyl)bicyclo[2.2.2]octan-1-yl)acetamide] has an IC50 greater than 10000 nM.
`Cc1cc(N2CCc3c(c(C)nn3CC34CCC(NC(=O)C5CNCCO5)(CC3)CC4)C2)c2cnn(C)c2n1` (stereo not drawn) [compound 125, N-(4-((5-(1,6-dimethyl-1H-pyrazolo[3,4-b]pyridin-4-yl)-3-methyl-4,5,6,7-tetrahydro-1H-pyrazolo[4,3-c]pyridin-1-yl)methyl)bicyclo[2.2.2]octan-1-yl)morpholine-2-carboxamide] gave an IC50 of 909 nM.
`CCNCCC(=O)NC12CCC(Cn3nc(C)c4c3CCN(c3cc(C)nc5c3cnn5C)C4)(CC1)CC2` [compound 126, N-(4-((5-(1,6-dimethyl-1H-pyrazolo[3,4-b]pyridin-4-yl)-3-methyl-4,5,6,7-tetrahydro-1H-pyrazolo[4,3-c]pyridin-1-yl)methyl)bicyclo[2.2.2]octan-1-yl)-3-(ethylamino)propanamide] was tested, and the IC50 was 9530 nM.
Compound `CCNC12CCC(Cn3nc(C)c4c3CCN(c3ccnc(-c5ccccc5)c3)C4)(CC1)CC2` [compound 127, N-ethyl-4-((3-methyl-5-(2-phenylpyridin-4-yl)-4,5,6,7-tetrahydro-1H-pyrazolo[4,3-c]pyridin-1-yl)methyl)bicyclo[2.2.2]octan-1-amine] has an IC50 of 545 nM.
`Cc1cc(N2CCc3c(c(C)nn3CC34CCC(N5CCOC[C@@H]5C)(CC3)CC4)C2)c2cnn(C)c2n1` [compound 128, (S)-4-(4-((5-(1,6-dimethyl-1H-pyrazolo[3,4-b]pyridin-4-yl)-3-methyl-4,5,6,7-tetrahydro-1H-pyrazolo[4,3-c]pyridin-1-yl)methyl)bicyclo[2.2.2]octan-1-yl)-3-methylmorpholine] was tested, and the IC50 was 792 nM.
`Cc1cc(N2CCc3c(c(C)nn3CC34CCC(N5CCOC[C@H]5C)(CC3)CC4)C2)c2cnn(C)c2n1` [compound 129, (R)-4-(4-((5-(1,6-dimethyl-1H-pyrazolo[3,4-b]pyridin-4-yl)-3-methyl-4,5,6,7-tetrahydro-1H-pyrazolo[4,3-c]pyridin-1-yl)methyl)bicyclo[2.2.2]octan-1-yl)-3-methylmorpholine] was tested, and the IC50 was 1050 nM.
